Test systems include BT-549; COLO 205; DU-145; EKVX; HL-60; HOP-62; HT-29; IGROV-1; LOX IMVI; MCF7; MDA-MB-435; OVCAR-4; PC-3; RXF 393; SF-539; T47D; U-251; UO-31; SK-MEL-28.
Holding throughout (assay): inhibition of tumour cell growth, NCI panel, 48 h

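Compound exposure: 48 hours, 5 concentrations, 96-well plates. At the GI50, growth is halved.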 Calls of active or inactive are those of the source. Rule as the data show it: active = GI50 up to about 1.1 µM and inactive = higher.

For `CSc1ccc2c(c1)C(N1CCN(C)CC1)Cc1ccccc1S2` (stereo unspecified), the GI50 is 4.33 µM (inactive) with BT-549; 1.98 µM (inactive) in the assay with COLO 205; 10.7 µM (inactive) with DU-145; 3.34 µM (inactive) in the assay on EKVX; 2.69 µM (inactive) in the assay on HL-60; 8.07 µM (inactive) in the assay with HOP-62. The GI50 in the assay with HT-29 was 2.33 µM (inactive); in the assay on IGROV-1, 2.17 µM (inactive); in the assay with LOX IMVI it was 2.01 µM (inactive); in the assay with MCF7, 2.36 µM (inactive); in the assay on MDA-MB-435, 2.32 µM (inactive); with OVCAR-4, 2.3 µM (inactive). For the same compound, the GI50 in the assay on PC-3 was 4.3 µM (inactive); with RXF 393 it was 2.81 µM (inactive); in the assay on SF-539 it was 6.11 µM (inactive); with T47D, 8.04 µM (inactive); with U-251, 4.43 µM (inactive); with UO-31, 3.63 µM (inactive).

As for `O=C(CCCCCNC(=O)c1ccc(Cl)cc1)NO`, the GI50 in the assay on BT-549 is 21.9 µM (inactive); in the assay with COLO 205, 2.99 µM (inactive); with DU-145, 4.17 µM (inactive); with EKVX, 8.97 µM (inactive); in the assay with HL-60 it was 3.77 µM (inactive); with HT-29 it was 2.98 µM (inactive). Besides, the GI50 in the assay with IGROV-1 is 5.16 µM (inactive); in the assay with LOX IMVI it was 4.76 µM (inactive); with MCF7, 6.21 µM (inactive); in the assay with MDA-MB-435 it was 3.11 µM (inactive); with OVCAR-4, 20.6 µM (inactive); in the assay on PC-3 it was 2.86 µM (inactive). For the same compound, the GI50 with RXF 393 was 3.66 µM (inactive); in the assay on SF-539, 5.55 µM (inactive); with SK-MEL-28, 5.32 µM (inactive); in the assay on T47D, 1.41 µM (inactive); in the assay with U-251, 5.04 µM (inactive); in the assay with UO-31 it was 6.53 µM (inactive).

Turning to `O=C(O)CCC1(C(=O)O)CCC(=O)c2ccccc21` (stereo unspecified), the GI50 in the assay with BT-549, in the assay on COLO 205, with DU-145, in the assay on HL-60, with HOP-62 and with HT-29 was > 100 µM (inactive) throughout. Further, the GI50 with IGROV-1, in the assay on LOX IMVI, with MCF7, in the assay with MDA-MB-435, with OVCAR-4 and in the assay with PC-3 was > 100 µM (inactive) throughout. For the same compound, the GI50 with RXF 393, in the assay on SF-539, with SK-MEL-28, in the assay with T47D, in the assay with U-251 and with UO-31 was > 100 µM (inactive) throughout.

As to `C=C1C(=O)O[C@H]2[C@@H](O)[C@H](C)CCC[C@]3(C)O[C@H]3CC[C@@]3(C)O[C@@H]3C[C@@H]12`, the GI50 in the assay on BT-549 was 1.24 µM (inactive); in the assay with COLO 205, 3.01 µM (inactive); with DU-145, 6.52 µM (inactive); with EKVX, 4.06 µM (inactive); in the assay with HL-60, 0.897 µM (active); in the assay on HOP-62 it was 7.4 µM (inactive). For the same compound, the GI50 was 5.66 µM (inactive) in the assay with HT-29; 5.24 µM (inactive) in the assay on IGROV-1; 2.08 µM (inactive) in the assay with MCF7; 3.74 µM (inactive) in the assay with MDA-MB-435; 2.66 µM (inactive) in the assay on OVCAR-4; 7.43 µM (inactive) in the assay on PC-3. The GI50 is 1.67 µM (inactive) in the assay on RXF 393; 6.81 µM (inactive) in the assay on SF-539; 2.83 µM (inactive) in the assay with SK-MEL-28; 7.66 µM (inactive) in the assay with T47D; 8.57 µM (inactive) with U-251; 6.04 µM (inactive) in the assay with UO-31.

In the case of `COc1ccccc1/C=C/C1=NN(c2cccc(S(=O)(=O)O)c2)C2(C1)C(Cl)C(=O)N2c1nc2ccccc2s1` (stereo unspecified), the GI50 was 49.2 µM (inactive) with BT-549; 88.9 µM (inactive) in the assay with COLO 205; 67 µM (inactive) with DU-145; 43.4 µM (inactive) in the assay on EKVX; 22.1 µM (inactive) in the assay on HL-60; > 100 µM (inactive) in the assay on HOP-62. The GI50 in the assay on HT-29 was 82.4 µM (inactive); in the assay on IGROV-1, 28.5 µM (inactive); in the assay with LOX IMVI, 29.7 µM (inactive); with MCF7, 40.7 µM (inactive); in the assay on MDA-MB-435, 54.6 µM (inactive); in the assay on OVCAR-4, 42.2 µM (inactive). The GI50 is 76.6 µM (inactive) with PC-3; 31.3 µM (inactive) in the assay on RXF 393; 58.2 µM (inactive) in the assay with SF-539; > 100 µM (inactive) in the assay with SK-MEL-28; 12.1 µM (inactive) in the assay on T47D; 52.7 µM (inactive) in the assay on U-251. For the same compound, the GI50 with UO-31 is 16.9 µM (inactive).

For `CCCCCNC1=CC(=O)c2ccccc2C1=O`, the GI50 was 19.5 µM (inactive) in the assay with BT-549; 79.6 µM (inactive) in the assay with COLO 205; 53.3 µM (inactive) with DU-145; > 58.9 µM (inactive) in the assay on EKVX; 18.5 µM (inactive) with HL-60; 23.9 µM (inactive) in the assay on HOP-62. Also, the GI50 was 69.2 µM (inactive) in the assay on HT-29; 33.2 µM (inactive) with IGROV-1; 22.6 µM (inactive) with LOX IMVI; > 72.3 µM (inactive) in the assay on MCF7; > 100 µM (inactive) in the assay on MDA-MB-435; 59.7 µM (inactive) in the assay with OVCAR-4. In addition, the GI50 in the assay with PC-3 is 37.6 µM (inactive); in the assay on RXF 393, 21.7 µM (inactive); with SF-539, 20.6 µM (inactive); in the assay with SK-MEL-28 it was > 100 µM (inactive); in the assay with T47D, 27.5 µM (inactive); in the assay on U-251 it was 17.5 µM (inactive). Also, the GI50 in the assay with UO-31 was > 51.6 µM (inactive).

`CSc1[nH]nc(N)c1C(=O)Nc1ccc(C)cc1`: the GI50 with BT-549 is 90.6 µM (inactive); in the assay with COLO 205 it was 55 µM (inactive); in the assay on DU-145 it was 22.3 µM (inactive); with EKVX it was 32.2 µM (inactive); in the assay with HL-60, 39.3 µM (inactive); in the assay on HOP-62 it was > 100 µM (inactive). In addition, the GI50 in the assay on HT-29 was > 100 µM (inactive); in the assay with LOX IMVI it was 38.6 µM (inactive); in the assay on MCF7, 39.5 µM (inactive); in the assay with MDA-MB-435, 30.9 µM (inactive); in the assay on OVCAR-4, 46.2 µM (inactive); in the assay with PC-3, 33.7 µM (inactive). For the same compound, the GI50 in the assay on RXF 393 was 97.9 µM (inactive); in the assay with SF-539, > 100 µM (inactive); in the assay on SK-MEL-28, 48.8 µM (inactive); in the assay with T47D, 18.4 µM (inactive); in the assay on U-251 it was 50.2 µM (inactive); in the assay on UO-31, 36.9 µM (inactive).

`COC(=O)NNC(c1ccc(Cl)cc1)c1ccc(Cl)cc1`: the GI50 with BT-549 was 16.1 µM (inactive); in the assay on COLO 205 it was 18.1 µM (inactive); in the assay with DU-145 it was 31 µM (inactive); in the assay on EKVX it was 18.8 µM (inactive); in the assay with HL-60 it was 21 µM (inactive); in the assay with HT-29 it was 16.5 µM (inactive). In addition, the GI50 in the assay with IGROV-1 is 16.4 µM (inactive); in the assay on LOX IMVI, 16.4 µM (inactive); in the assay on MCF7 it was 23.7 µM (inactive); in the assay with MDA-MB-435 it was 31.8 µM (inactive); with OVCAR-4, 20.8 µM (inactive); in the assay on PC-3, 12.2 µM (inactive). Besides, the GI50 in the assay with RXF 393 was 10.5 µM (inactive); in the assay with SF-539, 20.7 µM (inactive); with SK-MEL-28, 18.7 µM (inactive); with T47D it was 19.9 µM (inactive); in the assay with U-251 it was 19.5 µM (inactive); in the assay with UO-31, 12.5 µM (inactive).

Turning to `O=C(/N=S(/NC(=O)c1ccccc1)C(Cl)(Cl)Cl)c1ccccc1` (stereo unspecified), the GI50 in the assay on BT-549 is 12.7 µM (inactive); with COLO 205, 14.8 µM (inactive); in the assay on DU-145, 53.5 µM (inactive); in the assay with EKVX it was 19.7 µM (inactive); in the assay with HL-60, 4.89 µM (inactive); in the assay with HOP-62, 19.5 µM (inactive). Besides, the GI50 with HT-29 is 18.9 µM (inactive); in the assay on IGROV-1, 8.47 µM (inactive); in the assay on LOX IMVI, 10.6 µM (inactive); in the assay on MCF7, 24 µM (inactive); in the assay with MDA-MB-435 it was 17.7 µM (inactive); in the assay with OVCAR-4, 17.4 µM (inactive). The GI50 with PC-3 is 46.2 µM (inactive); with RXF 393 it was 12.1 µM (inactive); with SF-539, 21.1 µM (inactive); in the assay on SK-MEL-28 it was 25.3 µM (inactive); in the assay with T47D it was 26.9 µM (inactive); with U-251 it was 29.9 µM (inactive). Further, in the assay on UO-31, the GI50 was 16.3 µM (inactive).

On to `O=C(Nc1ccc(Cl)cc1)NS(=O)(=O)c1coc2ccccc2c1=O`, for which the GI50 with BT-549, with COLO 205, in the assay on DU-145, with EKVX, in the assay on HL-60 and in the assay on HOP-62 was > 10 µM (inactive) in each case. The GI50 in the assay on HT-29, in the assay on IGROV-1, with LOX IMVI, in the assay with MCF7, in the assay on MDA-MB-435 and in the assay on OVCAR-4 was > 10 µM (inactive) throughout. For the same compound, the GI50 with PC-3, in the assay on RXF 393, in the assay on SF-539, with SK-MEL-28, in the assay on T47D and with U-251 was > 10 µM (inactive) in each case.

`O=C1CC(NC(=O)C(F)(F)F)c2c(Br)sc(N3CCNCC3)c21` (stereo unspecified): the GI50 with BT-549 is > 100 µM (inactive); in the assay with COLO 205 it was > 100 µM (inactive); in the assay with DU-145, > 100 µM (inactive); in the assay with EKVX, > 100 µM (inactive); in the assay with HL-60, > 100 µM (inactive); in the assay with HT-29, 85.7 µM (inactive). Moreover, the GI50 with IGROV-1, in the assay with LOX IMVI, in the assay on MCF7, in the assay on MDA-MB-435, in the assay with OVCAR-4 and in the assay on PC-3 was > 100 µM (inactive) each time. Also, the GI50 with RXF 393 was > 100 µM (inactive); in the assay with SF-539, > 100 µM (inactive); in the assay with SK-MEL-28 it was > 100 µM (inactive); in the assay with T47D it was > 100 µM (inactive); with U-251, > 100 µM (inactive); in the assay on UO-31, 61.4 µM (inactive).

The values above are taken from ChEMBL document CHEMBL1201862, “PubChem BioAssay data set” (2004).
